Data on three molecules can be found in ChEMBL document CHEMBL5113486, “Hit-to-lead optimization of novel phenyl imidazole carboxamides that are active against Leishmania donovani” (Eur J Med Chem, 2022).

Converted amounts (≈) assume the structure as drawn. A value given as a limit tells only on which side of the number the result lay.

The test system of one data set is Leishmania donovani. Description: Antileishmanial activity against Leishmania donovani infected in human THP-1 cells assessed as growth inhibition by intramacrophage assay. It is filed as functional, organism-based.
A short description of data set [1]: Cytotoxicity against human THP-1 cells assessed as cell growth inhibition. It is filed as toxicity, cell-based.
Data set [2] can be described thus: Selectivity index, ratio of CC50 for cytotoxicity against human THP-1 cells to IC50 for antileishmanial activity against Leishmania donovani infected in human THP-1 cells. It is filed as toxicity, cell-based. The conditions noted are these: read-out: Ratio CC50/IC50.
A short description of data set [3]: Cytotoxicity against human HepG2 cells assessed as cell growth inhibition at 100 uM. The conditions noted are these: read-out: Activity. Type of data set: toxicity, cell-based.
Data set [4] in a line: Metabolic stability in human liver microsomes assessed as half-life. Type of data set: ADME, Microsome.
A short description of data set [5]: Metabolic stability in mouse liver microsomes assessed as half life. Type of data set: ADME, Microsome.
A short description of data set [6]: Metabolic stability in human liver microsomes assessed as intrinsic clearance measured per mg protein. It is filed as ADME, Microsome. The conditions noted are these: read-out: CLH.
Data set [7] in a line: Metabolic stability in mouse liver microsomes assessed as intrinsic clearance measured per mg protein. It is filed as ADME, Microsome. To be noted: read-out: CLH.
Data set [8] can be described thus: Stability in mouse liver microsomes assessed as parent compound remaining measured at 2 mins. It is filed as ADME, Microsome.
A short description of data set [9]: Kinetic solubility of the compound at pH 2.0 by nephelometry. Type of data set: physicochemical. To be noted: buffer, read-out: Kinetic_solubility.
Data set [10] is described as follows: Kinetic solubility of the compound at pH 6.5 by nephelometry. Type of data set: physicochemical. To be noted: buffer, read-out: Kinetic_solubility.
The nature of data set [11]: Drug degradation in human liver microsomes. Type of data set: ADME, Microsome. To be noted: read-out: Drug degradation.
In data set [12] the test system is HepG2. Description: (§1) Cytotoxicity against human HepG2 cells assessed as inhibition of cell growth under glucose containing medium by crabtree effect assay. To be noted: hepg2. It is filed as toxicity, cell-based.
Data set [13] deals with HepG2. As to the kind of experiment: Cytotoxicity against human HepG2 cells assessed as inhibition of cell growth under galactose containing medium by crabtree effect assay. Type of data set: toxicity, cell-based.
Data set [14] relates to HepG2. As to the kind of experiment: Mitotoxicity in human HepG2 cells assessed as reduction in metabolic activity under glucose containing medium by crabtree effect assay. It is filed as toxicity, cell-based.
Data set [15] relates to HepG2. As to the kind of experiment: Mitotoxicity in human HepG2 cells assessed as reduction in metabolic activity under galactose containing medium by crabtree effect assay. It is filed as toxicity, cell-based.
Data set [16] in a line: as §1. To be noted: HepG2 cells. Type of data set: toxicity, cell-based.

Consider `Cn1c(-c2ccccc2)cnc1NC(=O)c1ncc[nH]1`, for which the IC50 in the data set on Leishmania donovani is 6.4 µM. Further, in [1], the CC50 is above 100 µM. Also, the selectivity ratio in [2] is above 16. Besides, the inhibition at 100 µM in [3] is below 50%. Besides, the figures for the half-life in data set [4] and in data set [5] were 1.47 h and below 0.0333 h, respectively. The values for the microsomal CLint in data set [6] and in data set [7] were 20 µL/min/mg and above 866 µL/min/mg, respectively. Moreover, the Stability entry in data set [8] is recorded as “Unstable”.
As for `Cn1c(-c2ccc(Cl)cc2)cnc1NC(=O)c1ncc[nH]1`, in the data set on Leishmania donovani, the IC50 is 0.52 µM. Further, the CC50 in data set [1] is 52 µM. For the same molecule, the selectivity ratio in [2] was 100. Moreover, the solubility kinetic in data set [9] stood at 50 µg/mL (≈ 166 µM); in data set [10] it was 25 µg/mL (≈ 82.9 µM). The half-life in data set [4] was above 4.25 h; in [5] it was 0.717 h. The microsomal CLint in [6] is below 7 µL/min/mg; in [7], 41 µL/min/mg. Further, the metabolised in data set [11] is below 15%. Further, the Activity entry in the data set on HepG2 [12], with HepG2 [13], in the data set on HepG2 [14] and in the data set on HepG2 [15] was “Non-Toxic” throughout.
On to `Cn1c(-c2cccc(Cl)c2)cnc1NC(=O)c1ncc[nH]1`, for which the IC50 in the data set on Leishmania donovani came out at 0.74 µM. In addition, the CC50 in [1] stood at 55 µM; in data set [16], 17 µM. The selectivity ratio in [2] was 74. For the same molecule, the solubility kinetic in data set [9] stood at 12.5 µg/mL (≈ 41.4 µM); in data set [10], 3.1 µg/mL (≈ 10.3 µM). Further, the figures for the half-life in [4] and in data set [5] were 3.82 h and 1.37 h, respectively. In addition, the microsomal CLint in data set [6] is 8 µL/min/mg; in data set [7], 21 µL/min/mg. Besides, the metabolised in data set [11] was below 15%. Also, the Activity result with HepG2 [13], with HepG2 [14] and with HepG2 [15] was “Non-Toxic” in each case.
